Measurements as given in the supplement of paper PMC10307832.

Assays:
Experiment in all cases: relative viability (nuclei count vs DMSO), 5 days (fraction); higher = more cells survive
17-AAG + Bortezomib = compound: C=CCNC1=C2C[C@@H](C)C[C@H](OC)[C@H](O)[C@@H](C)/C=C(\C)[C@H](OC(N)=O)[C@@H](OC)/C=C\C=C(/C)C(=O)NC(=CC1=O)C2=O [17-AAG] + CC(C)C[C@H](NC(=O)[C@H](Cc1ccccc1)NC(=O)c1cnccn1)B(O)O [Bortezomib] (partner 0.002 µM)
Summary of the method: (§1)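 Medians of duplicate plates are given as relative viability. That measure is the nuclei count in treated wells divided by the count in vehicle wells. Counts were taken on 4× images of lung cancer cell lines in 1536-well plates, 5 days after pin-tool dosing the day after seeding with one drug alone or a fixed anchor-drug dose plus five library-drug doses (not always all listed) in √10 steps.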

17-AAG + Alpelisib = compound: C=CCNC1=C2C[C@@H](C)C[C@H](OC)[C@H](O)[C@@H](C)/C=C(\C)[C@H](OC(N)=O)[C@@H](OC)/C=C\C=C(/C)C(=O)NC(=CC1=O)C2=O [17-AAG] + Cc1nc(NC(=O)N2CCC[C@H]2C(N)=O)sc1-c1ccnc(C(C)(C)C(F)(F)F)c1 [Alpelisib] (partner 2 µM)
Summary of the method: as §1

17-AAG + Pemetrexed = compound: C=CCNC1=C2C[C@@H](C)C[C@H](OC)[C@H](O)[C@@H](C)/C=C(\C)[C@H](OC(N)=O)[C@@H](OC)/C=C\C=C(/C)C(=O)NC(=CC1=O)C2=O [17-AAG] + Nc1nc2[nH]cc(CCc3ccc(C(=O)N[C@@H](CCC(=O)O)C(=O)O)cc3)c2c(=O)[nH]1 [Pemetrexed] (partner 0.2 µM)
Summary of the method: as §1

17-AAG + Olaparib = compound: C=CCNC1=C2C[C@@H](C)C[C@H](OC)[C@H](O)[C@@H](C)/C=C(\C)[C@H](OC(N)=O)[C@@H](OC)/C=C\C=C(/C)C(=O)NC(=CC1=O)C2=O [17-AAG] + O=C(c1cc(Cc2n[nH]c(=O)c3ccccc23)ccc1F)N1CCN(C(=O)C2CC2)CC1 [Olaparib] (partner 8 µM)
Summary of the method: as §1

Cell Line | relative viability (17-AAG + Bortezomib; first compound 0.00128 µM) | relative viability (17-AAG + Bortezomib; first compound 0.004048 µM) | relative viability (17-AAG + Bortezomib; first compound 0.0128 µM) | relative viability (17-AAG + Bortezomib; first compound 0.04048 µM) | relative viability (17-AAG + Bortezomib; first compound 0.128 µM) | relative viability (17-AAG + Alpelisib; first compound 0.00128 µM) | relative viability (17-AAG + Alpelisib; first compound 0.004048 µM) | relative viability (17-AAG + Alpelisib; first compound 0.0128 µM) | relative viability (17-AAG + Alpelisib; first compound 0.04048 µM) | relative viability (17-AAG + Alpelisib; first compound 0.128 µM) | relative viability (17-AAG + Pemetrexed; first compound 0.00128 µM) | relative viability (17-AAG + Pemetrexed; first compound 0.004048 µM) | relative viability (17-AAG + Pemetrexed; first compound 0.0128 µM) | relative viability (17-AAG + Pemetrexed; first compound 0.04048 µM) | relative viability (17-AAG + Pemetrexed; first compound 0.128 µM) | relative viability (17-AAG + Olaparib; first compound 0.00128 µM) | relative viability (17-AAG + Olaparib; first compound 0.004048 µM) | relative viability (17-AAG + Olaparib; first compound 0.0128 µM) | relative viability (17-AAG + Olaparib; first compound 0.04048 µM) | relative viability (17-AAG + Olaparib; first compound 0.128 µM)
NCI-H2087 | 0.85 | 0.674 | 0.377 | 0.215 | 0.137 | 1.16 | 0.904 | 0.308 | 0.189 | 0.165 | 0.606 | 0.618 | 0.354 | 0.163 | 0.128 | 0.649 | 0.216 | 0.168 | 0.134 | 0.129
NCI-H2126 | 1.09 | 1.1 | 0.993 | 1.06 | 0.255 | 0.757 | 0.792 | 0.742 | 0.714 | 0.303 | 0.689 | 0.749 | 0.746 | 0.257 | 0.258 | 0.895 | 0.887 | 0.893 | 0.762 | 0.265
NCI-H2228 | 0.88 | 0.304 | 0.137 | 0.167 | 0.135 | 0.781 | 0.273 | 0.16 | 0.19 | 0.153 | 0.333 | 0.158 | 0.11 | 0.148 | 0.12 | 0.523 | 0.21 | 0.127 | 0.111 | 0.147
NCI-H2347 | – | 0.995 | 0.871 | 0.447 | 0.371 | 1.12 | 0.961 | 1.1 | 0.565 | 0.417 | 0.426 | 0.463 | 0.517 | 0.376 | 0.331 | 0.589 | 0.607 | 0.496 | 0.349 | 0.341
NCI-H2405 | 1.04 | 1.03 | 1 | 0.675 | 0.217 | 0.942 | 0.695 | 0.221 | 0.233 | 0.16 | 1.05 | 0.956 | 0.267 | 0.186 | 0.156 | 0.797 | 0.856 | 0.275 | 0.233 | 0.168
NCI-H3122 | 0.926 | 0.954 | 0.506 | 0.488 | 0.177 | 0.687 | 0.533 | 0.198 | 0.196 | 0.173 | 0.198 | 0.191 | 0.127 | 0.122 | 0.11 | 0.598 | 0.61 | 0.538 | 0.288 | 0.124
PC-3 [JPC-3] | 0.824 | 0.848 | 0.814 | – | 0.707 | 0.976 | 1.03 | 1.02 | – | 0.955 | 1.23 | 1.12 | 1.18 | 0.491 | 0.85 | 1.23 | 1.17 | 1.16 | 0.581 | 0.697
PC-14 | 0.915 | 0.822 | 0.808 | 0.12 | 0.101 | 0.939 | 0.726 | 0.662 | 0.106 | 0.0874 | 0.143 | 0.166 | 0.111 | 0.0924 | 0.0882 | 0.298 | 0.132 | 0.0665 | 0.0524 | 0.0698
RERF-LC-KJ | 1.17 | 1.17 | 0.888 | 0.288 | 0.303 | 0.957 | 0.829 | 0.759 | 0.291 | 0.277 | 0.47 | 0.514 | 0.33 | 0.255 | 0.219 | 0.954 | 0.648 | 0.291 | 0.249 | 0.216
SK-LU-1 | 0.976 | 0.903 | 0.311 | 0.238 | 0.197 | 0.961 | 0.327 | 0.188 | 0.237 | 0.165 | 0.999 | 0.63 | 0.28 | 0.27 | 0.19 | 0.512 | 0.439 | 0.301 | 0.153 | 0.173
SW 1573 | 1.23 | 1.02 | 0.687 | 0.225 | 0.117 | 0.817 | 0.716 | 0.648 | 0.158 | 0.109 | 0.819 | 0.93 | 0.164 | 0.11 | 0.0923 | 0.441 | 0.234 | 0.182 | 0.113 | 0.0907
UMC-11 | 0.667 | 0.616 | 0.629 | 0.227 | 0.12 | 1.05 | 0.855 | 0.658 | 0.211 | 0.129 | 0.793 | 0.741 | 0.576 | 0.246 | 0.183 | 0.519 | 0.376 | 0.261 | 0.0963 | 0.174
